The IC50 is the point on the concentration scale where inhibition reaches its midpoint.

This passage reports IC50 results from US11292792B2, “Tricyclic CRBN ligands and uses thereof” (Kymera Therapeutics, Inc., priority 2018, dated 2022).

Structures are written as SMILES.

The test deals with His-tagged CRBN-DDB1 complex (Homo sapiens (Human), UniProt Q96SW2). The test can be described thus: Time-resolved fluorescence resonance energy transfer (TR-FRET) assay, displacement of Cy5-labeled thalidomide. It counts as binding. The settings on record: read-out: CRBN HTRF IC50. The method, then: Equal volumes of His-tagged CRBN-DDB1 complex (56 nM) was mixed with Eu-cryptate labeled Anti-6HIS-monoclonal antibody (50× dilution from the commercial stock solution, Vender: Cisbio, Cat. #61HI2KLA) in a final buffer containing 20 mM HEPES pH 7.0, 150 mM NaCl, 0.005% Tween-20. […] The mixture were incubated at room temperature for 1 hour. FRET signals were measured on an EnVision plate reader (Perkin Elmer) by exciting at 340 nm and recording emission at both 615 nm as no FRET control and 665 nm as the FRET signals with a 60 microsecond delay. FRET efficiency was calculated as the ratio of fluorescent signals at […]. Quantitative loss of FRET efficiency as a function of compound concentrations was fitted by a four-parameter Logistic Function using GraphPad Prism 7.0 and the IC50 values were reported for each compound.
Sequence of His-tagged CRBN-DDB1 complex (Q96SW2 whole entry): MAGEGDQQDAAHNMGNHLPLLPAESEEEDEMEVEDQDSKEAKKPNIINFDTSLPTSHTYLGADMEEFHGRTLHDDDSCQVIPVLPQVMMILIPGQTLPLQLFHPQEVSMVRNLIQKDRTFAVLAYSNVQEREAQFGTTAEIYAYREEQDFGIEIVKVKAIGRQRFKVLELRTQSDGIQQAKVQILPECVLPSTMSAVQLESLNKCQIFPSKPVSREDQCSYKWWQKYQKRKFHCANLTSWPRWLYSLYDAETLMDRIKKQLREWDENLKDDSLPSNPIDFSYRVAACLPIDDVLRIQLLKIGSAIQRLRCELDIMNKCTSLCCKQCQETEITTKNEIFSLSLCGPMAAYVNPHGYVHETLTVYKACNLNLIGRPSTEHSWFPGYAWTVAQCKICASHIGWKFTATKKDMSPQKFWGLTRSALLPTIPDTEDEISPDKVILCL
Sequence of His-tagged CRBN-DDB1 complex (Q16531 whole entry partner): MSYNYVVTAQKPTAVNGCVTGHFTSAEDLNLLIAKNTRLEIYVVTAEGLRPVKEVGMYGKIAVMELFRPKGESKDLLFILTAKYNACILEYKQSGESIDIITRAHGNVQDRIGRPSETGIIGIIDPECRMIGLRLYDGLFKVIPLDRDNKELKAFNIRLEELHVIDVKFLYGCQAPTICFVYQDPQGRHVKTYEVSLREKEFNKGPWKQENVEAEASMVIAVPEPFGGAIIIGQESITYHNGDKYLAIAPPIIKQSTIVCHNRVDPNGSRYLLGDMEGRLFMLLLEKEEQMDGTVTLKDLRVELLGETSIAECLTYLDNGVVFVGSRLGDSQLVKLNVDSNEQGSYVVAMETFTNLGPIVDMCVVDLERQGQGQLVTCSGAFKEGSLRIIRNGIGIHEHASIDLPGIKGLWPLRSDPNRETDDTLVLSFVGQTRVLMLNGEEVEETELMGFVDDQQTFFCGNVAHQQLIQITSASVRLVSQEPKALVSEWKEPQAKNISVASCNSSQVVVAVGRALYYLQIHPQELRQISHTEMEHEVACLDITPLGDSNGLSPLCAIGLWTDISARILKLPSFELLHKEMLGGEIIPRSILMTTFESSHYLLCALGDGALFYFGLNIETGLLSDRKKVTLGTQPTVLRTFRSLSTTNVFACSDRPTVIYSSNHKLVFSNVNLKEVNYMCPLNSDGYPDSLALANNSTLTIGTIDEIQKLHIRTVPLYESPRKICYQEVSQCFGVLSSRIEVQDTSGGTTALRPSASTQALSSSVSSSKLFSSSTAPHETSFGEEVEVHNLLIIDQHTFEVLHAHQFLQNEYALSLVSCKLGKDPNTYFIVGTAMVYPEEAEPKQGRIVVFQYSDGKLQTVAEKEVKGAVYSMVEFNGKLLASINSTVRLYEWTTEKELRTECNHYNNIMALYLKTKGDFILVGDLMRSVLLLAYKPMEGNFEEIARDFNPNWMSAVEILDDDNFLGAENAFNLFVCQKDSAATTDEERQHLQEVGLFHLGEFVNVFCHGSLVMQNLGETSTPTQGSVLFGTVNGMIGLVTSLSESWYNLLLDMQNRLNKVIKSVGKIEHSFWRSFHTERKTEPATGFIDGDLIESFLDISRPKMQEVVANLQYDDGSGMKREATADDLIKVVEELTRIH
The compound numbers correspond to the compound numbers in Table 1.
On to `CCNC(=O)Nc1ccc2c(c1)c1cccnc1n2C1CCC(=O)NC1=O` (stereo not drawn) [I-9, 1-(9-(2,6-Dioxopiperidin-3-yl)-9H-pyrido[2,3-b]indol-6-yl)-3-ethylurea], for which the IC50 was below 10 µM.

For the compound `O=C1CCC(n2c3cc(F)ccc3c3cccnc32)C(=O)N1` (stereo not drawn) [I-101], the 50% inhibitory concentration (IC50) is below 10 µM.

Regarding `N#Cc1ccc2c(c1)c1cccnc1n2C1CCC(=O)NC1=O` (stereo not drawn) [I-32], the half-inhibitory concentration (IC50) lay within 10 to 30 µM.

Regarding `O=C1CCC(n2c3ccccc3c3c(Br)csc32)C(=O)N1` (stereo not drawn) [I-89, 3-(3-bromo-8H-thieno[2,3-b]indol-8-yl)piperidine-2,6-dione], the IC50 was below 10 µM.

As for `O=C1CCC(n2c3ccccc3c3ccncc32)C(=O)N1` (stereo not drawn) [I-42], the half-maximal inhibitory concentration (IC50) is above 100 µM.

Take `O=C1CCC(n2c3cccc(C#CCOCCOCCOCc4ccccc4)c3c3cccnc32)C(=O)N1` (stereo not drawn) [I-52]: the half-inhibitory concentration (IC50) was below 10 µM.
